# Assays:
# [1] = system: RecA-dependent SOS induction in GY7313 cells; assay: SOS induction by MMC in permeabilized E. coli (sfi-lacZ reporter, β-galactosidase); assay type: cell-based; conditions: MMC-induced
# [2] = molecular target: T1, RecA protein (Escherichia coli, UniProt P0A7G6); assay: biochemical; assay type: binding, E. coli
# [3] = system: wild type (AB1157) bacteria; assay: Development of chloramphenicol resistance (mean latency time, OD600 growth); assay type: cell-based; conditions: in the presence of RecA
# [4] = molecular target: T1, RecA protein; assay type: biochemical, E. coli
# [5] = molecular target: T1, RecA protein; conditions: cited from earlier work
# T1 sequence (P0A7G6 2-353): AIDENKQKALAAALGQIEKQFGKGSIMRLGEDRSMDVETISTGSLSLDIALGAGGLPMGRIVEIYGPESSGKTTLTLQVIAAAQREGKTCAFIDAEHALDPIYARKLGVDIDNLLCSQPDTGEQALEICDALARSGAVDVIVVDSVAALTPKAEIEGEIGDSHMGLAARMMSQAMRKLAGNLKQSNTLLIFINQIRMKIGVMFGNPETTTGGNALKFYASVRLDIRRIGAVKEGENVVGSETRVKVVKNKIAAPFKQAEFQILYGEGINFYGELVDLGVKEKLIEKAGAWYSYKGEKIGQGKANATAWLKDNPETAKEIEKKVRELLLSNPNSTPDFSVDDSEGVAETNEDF
structure (smiles),measurement,setting,value
"O=P(O)(O)OP(=O)(O)OC[C@H]1O[C@@H](n2cnc3c(Nc4cccc5ccccc45)ncnc32)[C@H](O)[C@@H]1O [Compound 1, N^6-(1-Naphthyl)-Adenosine-5′-O-Diphosphate]",inhibition of SOS induction (β-galactosidase),[1],significantly inhibits SOS induction
"Nc1ncnc2c1ncn2[C@@H]1O[C@H](COP(=O)(O)OP(=O)(O)O)[C@@H](O)[C@H]1O [ADP, adenosine diphosphate]",Kd,[2],84 ± 27 µM
CCOS(C)(=O)=O [EMS],effect on chloramphenicol resistance development,[3],speed resistance development
NCCCCNCCCN [spermidine],effect on chloramphenicol resistance development,[3],retards resistance development
"O[C@@H](CS)[C@@H](O)CS [L-DTT, 1,4-dithio-L-threitol]",inhibition of RecA ATPase activity (in words),[4],no inhibition
"Nc1ncnc2c1ncn2[C@@H]1O[C@H](COP(=O)(O)OP(=O)(O)OP(=O)(O)O)[C@@H](O)[C@H]1O [ATP, adenosine triphosphate]",Hill coefficient nH,[4],3
same,Michaelis constant S0.5 for RecA and ATP,[4],47 µM
same,"S0.5 for ATP, reported literature values",[5],40 to 45 µM

# From patent US20100292135A1 (priority 2005, published 2010)
